Measurements published in patent US10669272B2, “Substituted naphthyridinone compounds useful as T cell activators” (BRISTOL-MYERS SQUIBB COMPANY, priority 2018, dated 2020).
Read-outs that look alike come from different tables or passages of the source.

Tests used:
human DGKα = biological target: T1, human DGKα (Homo sapiens, UniProt P23743); test: DGKα LIPGLO assay (extruded liposome substrate), in vitro DGK inhibition; format: biochemical; details: read-out: DGKa LIPGLO IC50
T1 construct: TVMV protease cleavage site (C); Hexa-His (C); made in house; host or cells: Sf9 insect cells (baculovirus, Bac-to-Bac)
T1 sequence (P23743 with tags, fused parts or gaps): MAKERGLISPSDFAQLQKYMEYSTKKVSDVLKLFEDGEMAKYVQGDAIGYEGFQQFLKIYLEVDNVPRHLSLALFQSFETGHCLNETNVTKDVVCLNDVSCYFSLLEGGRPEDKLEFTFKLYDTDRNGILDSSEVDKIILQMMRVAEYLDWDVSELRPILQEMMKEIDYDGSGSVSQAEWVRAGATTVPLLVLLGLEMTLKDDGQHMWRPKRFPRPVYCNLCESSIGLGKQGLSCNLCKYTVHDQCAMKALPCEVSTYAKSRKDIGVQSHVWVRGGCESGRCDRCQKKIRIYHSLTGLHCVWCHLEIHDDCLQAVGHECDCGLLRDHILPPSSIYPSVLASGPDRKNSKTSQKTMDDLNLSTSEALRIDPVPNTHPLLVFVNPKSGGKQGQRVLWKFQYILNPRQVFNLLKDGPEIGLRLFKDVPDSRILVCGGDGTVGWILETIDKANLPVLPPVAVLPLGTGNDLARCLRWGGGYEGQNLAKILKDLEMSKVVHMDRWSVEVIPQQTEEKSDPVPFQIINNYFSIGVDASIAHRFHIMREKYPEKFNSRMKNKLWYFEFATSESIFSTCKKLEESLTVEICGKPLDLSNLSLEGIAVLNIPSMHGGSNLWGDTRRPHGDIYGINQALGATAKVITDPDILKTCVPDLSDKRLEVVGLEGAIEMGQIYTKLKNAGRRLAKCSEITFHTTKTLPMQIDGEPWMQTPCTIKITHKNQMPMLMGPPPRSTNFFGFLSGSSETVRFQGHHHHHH

human DGKζ = biological target: T2, human DGKζ (Homo sapiens, UniProt Q13574); test: DGKζ LIPGLO assay (extruded liposome substrate), in vitro DGK inhibition; format: biochemical; details: read-out: DGKz LIPGLO IC50
T2 construct: TVMV protease cleavage site (C); Hexa-His (C); made in house; host or cells: Sf9 insect cells (baculovirus, Bac-to-Bac)
T2 sequence (Q13574 with tags, fused parts or gaps isoform Q13574-4): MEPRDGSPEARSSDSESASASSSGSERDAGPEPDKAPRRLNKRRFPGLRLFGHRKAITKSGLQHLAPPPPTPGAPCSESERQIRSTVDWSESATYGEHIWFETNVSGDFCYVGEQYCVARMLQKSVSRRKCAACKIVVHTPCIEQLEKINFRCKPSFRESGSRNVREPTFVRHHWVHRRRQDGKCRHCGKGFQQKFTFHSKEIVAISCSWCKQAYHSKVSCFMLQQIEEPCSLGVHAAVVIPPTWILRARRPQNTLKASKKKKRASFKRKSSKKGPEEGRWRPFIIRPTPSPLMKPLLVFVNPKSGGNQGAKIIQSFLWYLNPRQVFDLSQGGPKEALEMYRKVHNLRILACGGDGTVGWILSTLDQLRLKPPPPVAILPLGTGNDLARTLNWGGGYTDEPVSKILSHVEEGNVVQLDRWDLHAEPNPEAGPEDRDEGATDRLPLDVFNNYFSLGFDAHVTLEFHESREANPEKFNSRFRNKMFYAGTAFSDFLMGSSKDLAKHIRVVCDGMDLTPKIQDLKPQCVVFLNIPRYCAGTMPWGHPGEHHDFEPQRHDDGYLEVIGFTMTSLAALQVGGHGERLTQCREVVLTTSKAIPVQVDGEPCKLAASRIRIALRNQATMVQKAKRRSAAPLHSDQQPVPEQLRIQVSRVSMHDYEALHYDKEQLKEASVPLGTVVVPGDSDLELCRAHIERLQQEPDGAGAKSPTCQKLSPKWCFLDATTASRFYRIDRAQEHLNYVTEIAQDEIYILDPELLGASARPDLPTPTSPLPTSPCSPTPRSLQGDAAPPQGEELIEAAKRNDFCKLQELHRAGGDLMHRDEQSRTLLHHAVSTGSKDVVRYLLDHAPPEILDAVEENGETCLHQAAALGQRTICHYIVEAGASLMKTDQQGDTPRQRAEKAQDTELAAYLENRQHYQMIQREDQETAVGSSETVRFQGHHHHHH

naïve human CD8 T cells = test: Human CD8 T cells IFN-γ assay; format: cell-based; details: read-out: HuCD8 INFG Normalized EC50;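 note: Naïve human CD8 T cells stimulated with plate-bound anti-CD3 and soluble anti-CD28, IFN-γ in supernatant quantified by AlphaLISA and converted to pg/mL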
Human venous whole blood = test: Human whole blood IFN-γ assay; format: cell-based; details: human whole blood, read-out: INFg Whole Blood Normalized Agonist EC50;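 note: blood from healthy donors exposed to compound for 1 h before stimulation with anti-CD3 and anti-CD28 at 1 µg/mL each, IFN-γ quantified in supernatant by AlphaLISA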
[1] = Homo sapiens, T-cell, 20 h, normalized to 3 μM reference compound with anti-CD3 plus anti-CD28 as 100% activation
[2] = normalized to 3 μM reference compound with anti-CD3 plus anti-CD28 as 100% activation
[3] = Homo sapiens, 24 h, normalized to 3 μM reference compound with anti-CD3 plus anti-CD28 as 100% activation

IC50 (human DGKα; liposome (LIPGLO) assay) [nM]	IC50 (human DGKζ; liposome (LIPGLO) assay) [nM]	IC50 (human DGKα; DGKα liposome (LIPGLO) assay) [nM]	IC50 (human DGKζ; DGKζ liposome (LIPGLO) assay) [nM]	Compound	EC50 (naïve human CD8 T cells; [1]) [nM]	EC50 (Human venous whole blood; [2]) [nM]	EC50 (naïve human CD8 T cells; [2]) [nM]	EC50 (Human venous whole blood; [3]) [nM]	EC50 (naïve human CD8 T cells; Homo sapiens, T-cell, 20 h, naïve human CD8 T cells, anti-CD3 plus anti-CD28, 3 μM reference compound = 100% activation) [nM]	EC50 (Human venous whole blood; anti-CD3 plus anti-CD28, 24 hours, 3 μM reference compound = 100% activation) [nM]
140	1800			C[C@@H]1CN(c2cc(=O)n(C)c3ccc(C#N)nc23)[C@@H](C)CN1C(c1ccc(OC(F)(F)F)cc1)c1ccc(F)cn1 (mixture of isomers) [Example 462, 8-((2S,5R)-4-((5-fluoropyridin-2-yl)(4-(trifluoromethoxy)phenyl)methyl)-2,5-dimethylpiperazin-1-yl)-5-methyl-6-oxo-5,6-dihydro-1,5-naphthyridine-2-carbonitrile]	20	450				
> 250000	1000			CCc1cc(F)ccc1C(c1ccc(F)cc1)N1C[C@H](C)N(c2cc(=O)n(C)c3ccc(C#N)nc23)C[C@H]1C (single isomer, unassigned) [Example 227]	16	13000				
1200	2600			C[C@@H]1CN(c2c(F)c(=O)n(C)c3ccc(C#N)nc23)[C@@H](C)CN1C(c1ccc(F)cc1)c1ccc(C#N)cc1 (stereo partly drawn) [Example 328, 8-((2S,5R)-4-((4-cyanophenyl)(4-fluorophenyl)methyl)-2,5-dimethylpiperazin-1-yl)-7-fluoro-5-methyl-6-oxo-5,6-dihydro-1,5-naphthyridine-2-carbonitrile]		1000	6000			
690	3800			C[C@@H]1CN(c2cc(=O)n(C)c3ccc(C#N)nc23)[C@@H](C)CN1C(c1ccc(F)cc1)c1ncccc1F (single isomer, unassigned) [Example 188]		660	14			
720	2000			C[C@@H]1CN(c2cc(=O)n(C)c3ccc(C#N)nc23)[C@@H](C)CN1C(c1ccc(F)cc1)c1ccc(C(F)F)cc1 (single isomer, unassigned) [Example 666]			5.6	920		
820	440			C[C@@H]1CN(c2cc(=O)n(C)c3ccc(C#N)nc23)[C@@H](C)CN1C(c1ccc(F)cc1)c1cccc(F)c1 (single isomer, unassigned) [Example 249]	32			690		
15	740			C[C@@H]1CN(c2cc(=O)n(C)c3ccc(C#N)nc23)[C@@H](C)CN1Cc1ccc(F)cc1 [Example 297, 8-[(2S,5R)-4-[(4-fluorophenyl)methyl]-2,5-dimethylpiperazin-1-yl]-5-methyl-6-oxo-5,6-dihydro-1,5-naphthyridine-2-carbonitrile]	490			1500		
650	1100			C[C@@H]1CN(c2cc(=O)n(C)c3ccc(C#N)nc23)[C@@H](C)CN1C(c1ccccc1)c1ccc(F)cc1F (stereo partly drawn) [Example 283, 8-[(2S,5R)-4-[(2,4-difluorophenyl)(phenyl)methyl]-2,5-dimethylpiperazin-1-yl]-5-methyl-6-oxo-5,6-dihydro-1,5-naphthyridine-2-carbonitrile]	68			890		
360	790			Cc1ccc(C(c2ccc(Cl)cc2)N2C[C@H](C)N(c3cc(=O)n(C)c4ccc(C#N)nc34)C[C@H]2C)nc1 (single isomer, unassigned) [Example 213]			1100	460		
100	100			Cc1ccc(C(c2ccc(Cl)cn2)N2C[C@H](C)N(c3cc(=O)n(C)c4ccc(C#N)nc34)C[C@H]2C)cc1 (single isomer, unassigned) [Example 199]	61	250				
270	680			C[C@@H]1CN(c2cc(=O)n(C)c3ccc(C#N)nc23)[C@@H](C)CN1C(c1ccccc1)c1ccccc1F (stereo partly drawn) [Example 285, 8-[(2S,5R)-4-[(2-fluorophenyl)(phenyl)methyl]-2,5-dimethylpiperazin-1-yl]-5-methyl-6-oxo-5,6-dihydro-1,5-naphthyridine-2-carbonitrile]	150			1500		
1700	3500			C[C@@H]1CN(c2cc(=O)n(C)c3ccc(C#N)nc23)[C@@H](C)CN1Cc1cc(F)cc(F)c1 [Example 290, 8-[(2S,5R)-4-[(3,5-difluorophenyl)methyl]-2,5-dimethylpiperazin-1-yl]-5-methyl-6-oxo-5,6-dihydro-1,5-naphthyridine-2-carbonitrile]	2000			7900		
200	680			C[C@@H]1CN(c2cc(=O)n(C)c3ccc(C#N)nc23)[C@@H](C)CN1C(c1ccc(F)cc1)c1ccc(F)cn1 (single isomer, unassigned) [Example 194]	40			980		
1900	1800			CCc1ccc(C(c2cccc(F)c2)N2C[C@H](C)N(c3cc(=O)n(C)c4ccc(C#N)nc34)C[C@H]2C)nc1 (single isomer, unassigned) [Example 350]		850	200			
110	75			CC[C@H]1CN(C(c2ccc(Cl)cc2)c2ccc(Cl)cc2)[C@H](C)CN1c1cc(=O)n(C)c2ccc(C#N)nc12 [Example 1120]	32			680		
190	330			C[C@@H]1CN(c2cc(=O)n(C)c3ccc(C#N)nc23)[C@@H](C)CN1C(c1ccc(F)cc1)c1ccc(C(F)(F)F)cc1 (stereo partly drawn) [Example 294, 8-[(2S,5R)-4-[(4-fluorophenyl)[4-(trifluoromethyl)phenyl]methyl]-2,5-dimethylpiperazin-1-yl]-5-methyl-6-oxo-5,6-dihydro-1,5-naphthyridine-2-carbonitrile]	20			560		
		2500	2800	C[C@@H]1CN(c2c(C#N)c(=O)n(C)c3ccc(C#N)nc23)CCN1C(c1cccc(F)c1)c1ccc(F)cn1 (single isomer, unassigned) [Example 925]					91	710
71000	3100			CC(C)Oc1ncccc1C(c1ccc(F)cc1)N1C[C@H](C)N(c2cc(=O)n(C)c3ccc(C#N)nc23)C[C@H]1C (single isomer, unassigned) [Example 207]	430	3500				
1000	8800			COC(=O)C1CN(C(c2ccc(F)cc2)c2ccc(F)cc2)CCN1c1c(C#N)c(=O)n(C)c2ccc(Br)nc12 (centres unmarked) [Example 115, Methyl 4-(bis(4-fluorophenyl)methyl)-1-(6-bromo-3-cyano-1-methyl-2-oxo-1,2-dihydro-1,5-naphthyridin-4-yl)piperazine-2-carboxylate]	390			2000		
98	59			CC[C@H]1CN(C(c2ccc(Cl)cc2)c2ccc(F)cn2)[C@H](CC)CN1c1cc(=O)n(C)c2ccc(C#N)nc12 (single isomer, unassigned) [Example 1033]			190	120		
140	1600			C[C@@H]1CN(c2cc(=O)n(C)c3ccc(C#N)nc23)[C@@H](C)CN1Cc1c(F)cccc1C(F)(F)F [Example 254, 8-[(2S,5R)-4-{[2-fluoro-6-(trifluoromethyl)phenyl]methyl}-2,5-dimethylpiperazin-1-yl]-5-methyl-6-oxo-5,6-dihydro-1,5-naphthyridine-2-carbonitrile]	210			2200		
2800	2700			C[C@@H]1CN(c2cc(=O)n(C)c3ccc(C#N)nc23)[C@@H](C)CN1C(c1ccc(F)cc1)c1ccc(C(F)F)cc1 (single isomer, unassigned) [Example 667]		850	27			
25000	830			C[C@@H]1CN(c2cc(=O)n(C)c3ccc(C#N)nc23)[C@@H](C)CN1C(c1cccc(Cl)c1)c1cccc(Cl)c1 [Example 257, 8-[(2S,5R)-4-[bis(3-chlorophenyl)methyl]-2,5-dimethylpiperazin-1-yl]-5-methyl-6-oxo-5,6-dihydro-1,5-naphthyridine-2-carbonitrile]	810			6200		
58	1500			[2H]C(C)(c1ccc(F)cc1)N1C[C@H](C)N(c2c(F)c(=O)n(C)c3ccc(C#N)nc23)C[C@H]1C (single isomer, unassigned) [Example 425]	110	270				
35	3000			C[C@@H]1CN(c2cc(=O)n(C)c3ccc(C#N)nc23)[C@@H](C)CN1Cc1ccccc1 [Example 264, 8-[(2S,5R)-4-benzyl-2,5-dimethylpiperazin-1-yl]-5-methyl-6-oxo-5,6-dihydro-1,5-naphthyridine-2-carbonitrile]	260			11000		
180	210			Cc1ccc(C(c2cccc(F)c2)N2C[C@H](C)N(c3cc(=O)n(C)c4ccc(C#N)nc34)C[C@H]2C)nc1 (single isomer, unassigned) [Example 216]		130	74			
